# Measured values as given in paper PMC9723620 (2022).
# How the values were obtained:
# [1] = tested on: A-site RNA (RNA, rRNA) CGGCGUCACACCUCGGGGUGAAGUCGCCG; assay: fluorescent intercalator displacement (FID); conditions: 100 mM KCl, 4 mM MgCl2, 20 mM Tris-HCl pH 7.0, TO-PRO displaced, RNA 0.5 μM
# [2] = tested on: NEAT1_2 TH (5' biotin-TEG, immobilized) (RNA, triplex) AGGUGUUUCUUUUACUGAGUGCAGCCC/UGGCCGCACUCAGGUUUUGCUUUUCACCUUCCCAUCUGUGAAAGAGUGAGCAGGAAAAAGCAAAA; assay: grating-coupled interferometry (waveRAPID); conditions: 150 mM NaCl, 4 mM MgCl2; 10 mM HEPES pH 7.4, 0.005% Tween-20, 1% DMSO, 25°C; tested at 10 μM
# [3] = tested on: NEAT1_2 TH (RNA, triplex) AGGUGUUUCUUUUACUGAGUGCAGCCC/UGGCCGCACUCAGGUUUUGCUUUUCACCUUCCCAUCUGUGAAAGAGUGAGCAGGAAAAAGCAAAA; assay: fluorescent intercalator displacement (FID) screen; conditions: 100 mM KCl, 4 mM MgCl2, 20 mM Tris-HCl pH 7.0, 2% DMSO, TO-PRO displaced, RNA 0.25 μM, hit at 10 μM
# [4] = tested on: NEAT1_2 TH (RNA, triplex) AGGUGUUUCUUUUACUGAGUGCAGCCC/UGGCCGCACUCAGGUUUUGCUUUUCACCUUCCCAUCUGUGAAAGAGUGAGCAGGAAAAAGCAAAA; assay: fluorescent intercalator displacement (FID); conditions: 100 mM KCl, 4 mM MgCl2, 20 mM Tris-HCl pH 7.0, TO-PRO displaced, RNA 0.5 μM
# [5] = tested on: A-site RNA (RNA, rRNA) CGGCGUCACACCUCGGGGUGAAGUCGCCG; assay: fluorescence increase on binding; conditions: 100 mM KCl, 4 mM MgCl2; 20 mM Tris-HCl pH 7.0; RNA 0.5 μM, equimolar dye; 116.3-fold fluorescence increase
# [6] = tested on: NEAT1_2 TH (RNA, triplex) AGGUGUUUCUUUUACUGAGUGCAGCCC/UGGCCGCACUCAGGUUUUGCUUUUCACCUUCCCAUCUGUGAAAGAGUGAGCAGGAAAAAGCAAAA; assay: fluorescence increase on binding; conditions: 100 mM KCl, 4 mM MgCl2; 20 mM Tris-HCl pH 7.0; RNA 0.5 μM, equimolar dye; 220.7-fold fluorescence increase
# [7] = tested on: fragment 2 (f2), biotinylated (RNA, other) UGGCCGCACUCAGGUUUUGCUUUUCACCUUCCCAUCUGUGAAAGAGUGAGCAGGAAAAAGCAAAA; assay: grating-coupled interferometry (waveRAPID); conditions: 150 mM NaCl, 4 mM MgCl2; 10 mM HEPES pH 7.4, 0.005% Tween-20, 1% DMSO, 25°C; tested at 10 μM
# [8] = tested on: fragment 1 (f1), biotinylated (RNA, single strand) AGGUGUUUCUUUUACUGAGUGCAGCCC; assay: grating-coupled interferometry (waveRAPID); conditions: 150 mM NaCl, 4 mM MgCl2; 10 mM HEPES pH 7.4, 0.005% Tween-20, 1% DMSO, 25°C; tested at 10 μM
smiles,measurement,setting,value
CC(=O)NC[C@H]1CN(c2ccc(N3CCOCC3)c(F)c2)C(=O)O1,binding,[1]; no effect at 50 μM,no
CC(=O)c1c(O)c(C)c(O)c(Cc2c(O)c3c(c(C(=O)/C=C/c4ccccc4)c2O)OC(C)(C)C=C3)c1O,binding,[2],no
same,binding,[3]; not confirmed by GCI,yes
CC1(C)CC(Oc2ccc(-c3ccc(-c4cn[nH]c4)cc3O)nn2)CC(C)(C)N1,binding,[1]; at higher concentration,weak
same,binding,[4]; at higher concentration,weak
CN[C@@H]1[C@@H](O)[C@@H](O[C@@H]2[C@@H](O)[C@H](O[C@H]3O[C@H]([C@@H](C)O)[C@@H](O)[C@H](O)[C@H]3N)[C@@H](N)C[C@H]2N)OC[C@]1(C)O,binding,[1]; both concentrations,yes
same,binding,"[4]; fluorescence to 0.72, higher concentration only",weak
CNc1ncc(CN2CCCC(c3nc(-c4cccs4)cc(=O)[nH]3)C2)cn1 (centres unmarked),binding,[1]; two concentrations,no
same,binding,[4]; two concentrations,no
COc1ccc(Br)cc1S(=O)(=O)NC(=O)/C=C/c1ccccc1Cc1ccc2ccccc2c1,binding,[3],yes
C[n+]1c(C=C2C=CN(CCC[N+](C)(C)C)c3ccccc32)sc2ccccc21,binding,[5],yes
same,binding,[6],yes
Cc1cc(O)c2c(c1)C(=O)c1cc(O)cc(O)c1C2=O,binding,[7],no
same,binding,[8],no
same,binding,[3],yes
NCCOc1cc(C(=O)Nc2cc(OCCN)c3ccccc3n2)nc(C(=O)Nc2cc(OCCN)c3ccccc3n2)c1,binding,[3],yes
NC[C@@H]1O[C@H](O[C@H]2[C@@H](O)[C@H](O[C@@H]3[C@@H](O)[C@H](N)C[C@H](N)[C@H]3O[C@H]3O[C@H](CO)[C@@H](O)[C@H](O)[C@H]3N)O[C@@H]2CO)[C@H](N)[C@@H](O)[C@@H]1O,binding,[1]; fluorescence to 0.08 at 50 and 500 μM,yes
same,binding,"[4]; fluorescence 0.61 at 50, 0.34 at 500 μM",yes
O=C(N[C@H](CO)[C@H](O)c1ccc([N+](=O)[O-])cc1)C(Cl)Cl,binding,[2],no
same,binding,[1]; no effect at 50 μM,no
same,binding,[4]; no effect at 50 μM,no
O=C(O)C1=CC(=C(c2ccc(O)c(C(=O)O)c2)c2ccc(O)c(C(=O)O)c2)C=CC1=O,binding,[3],yes
O=C1Nc2ccc(I)cc2/C1=C/c1cc(Br)c(O)c(Br)c1,binding,[3],yes
O=C1c2c(O)ccc(O)c2C(=O)c2c(NCCNCCO)ccc(NCCNCCO)c21,binding,[3],yes
O=c1c(O)c(-c2cc(O)c(O)c(O)c2)oc2cc(O)cc(O)c12,binding,[3],yes
O=c1c(O)c(-c2ccc(O)c(O)c2)oc2cc(O)cc(O)c12,binding,[3],yes
